Laboratory results from the supplement of paper PMC10307832.

Compound: C[C@]1(c2nc3c(C(N)=O)cccc3[nH]2)CCCN1 [Veliparib] + Cc1nc(NC(=O)N2CCC[C@H]2C(N)=O)sc1-c1ccnc(C(C)(C)C(F)(F)F)c1 [Alpelisib] (partner 2 µM)
Assay: relative viability (nuclei count vs DMSO), 5 days (fraction); higher = more cells survive
Details: first compound 2 µM
In short: (§1)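 One day after seeding in 1536-well plates, lung cancer cell lines were dosed by pin tool. Dosing was either single-drug or a fixed anchor-drug dose plus five library-drug doses (not always all listed) in √10 steps. After 5 days, nuclei were stained in one fix-and-stain step and counted on 4× images, and relative viability is the nuclei count of treated wells over that of vehicle wells, given as the median of duplicate plates.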

Cell Line	relative viability
NCI-H2087	1.04
NCI-H441	0.671
HOP-62	0.785
NCI-H2170	0.764

Compound: COC1=CC=C(C=C1)CN2C=CC3=C2C=C(C=C3)C(=O)NO + Cc1cc(Nc2cc(N3CCN(C)CC3)nc(Sc3ccc(NC(=O)C4CC4)cc3)n2)n[nH]1 [Tozasertib] (partner 0.1 µM)
Assay: as above
Details: first compound 0.08 µM
In short: as §1

Cell Line	relative viability
NCI-H1395	0.673
HCC-78	0.34
EKVX	0.374
EPLC-272H	0.135
PC-14	0.302
LC-2-ad	0.384
NCI-H1651	0.574
HCC-827	0.405
LCLC-103H	0.445
RERF-LC-KJ	0.427
BEN	0.442
LCLC-97TM1	0.16
NCI-H2085	0.859
NCI-H727	0.592
201T	0.677
LOU-NH91	0.407
NCI-H1666	0.498
NCI-H650	0.595
NCI-H1993	0.568
NCI-H647	0.224
NCI-H2126	0.736
NCI-H1755	0.512
PC-3 [JPC-3]	0.861
NCI-H2087	0.253
NCI-H441	0.679
HOP-62	0.304
NCI-H2170	0.439

Same assay, conditions: first compound 0.253 µM

Cell Line	relative viability
NCI-H1395	0.817
NCI-H358	0.0969
HCC-78	0.329
EKVX	0.369
LK-2	0.196
PC-14	0.548
LXF-289	0.231
LC-2-ad	0.46
NCI-H1651	0.717
HCC-827	0.427
LCLC-103H	0.523
RERF-LC-KJ	0.494
NCI-H3122	0.327
BEN	0.472
LCLC-97TM1	0.219
NCI-H2085	0.817
A-427	0.234

Cell Line	relative viability
NCI-H727	0.529
NCI-H838	0.267
NCI-H1793	0.337
201T	0.976
LOU-NH91	0.693
NCI-H1666	0.622
NCI-H650	0.69
NCI-H1993	0.627
NCI-H647	0.237
NCI-H2126	0.801
NCI-H1755	0.688
PC-3 [JPC-3]	0.912
NCI-H2087	0.293
NCI-H441	0.604
HOP-62	0.353
NCI-H2170	0.869

Same assay, conditions: first compound 0.8 µM

Cell Line	relative viability
NCI-H1395	0.761
NCI-H358	0.108
HCC-78	0.397
EKVX	0.409
EPLC-272H	0.346
LK-2	0.197
PC-14	0.561
LXF-289	0.164
LC-2-ad	0.485
NCI-H1651	0.799
HCC-827	0.442
LCLC-103H	0.489
RERF-LC-KJ	0.499
NCI-H3122	0.397
BEN	0.437
LCLC-97TM1	0.193
NCI-H2085	0.96

Cell Line	relative viability
A-427	0.212
NCI-H727	0.772
NCI-H838	0.293
NCI-H1793	0.297
201T	0.998
LOU-NH91	0.66
NCI-H1666	0.571
NCI-H650	0.786
NCI-H1993	0.517
NCI-H647	0.314
NCI-H2126	0.856
NCI-H1755	0.619
PC-3 [JPC-3]	0.921
NCI-H2087	0.246
NCI-H441	0.561
HOP-62	0.392
NCI-H2170	0.694

Same assay, conditions: first compound 2.53 µM

Cell Line	relative viability
NCI-H1395	0.781
NCI-H358	0.131
HCC-78	0.395
EKVX	0.372
EPLC-272H	0.235
LK-2	0.157
PC-14	0.638
LXF-289	0.195
LC-2-ad	0.411
NCI-H1651	0.713
HCC-827	0.416
LCLC-103H	0.534
RERF-LC-KJ	0.49
NCI-H3122	0.352
BEN	0.495
LCLC-97TM1	0.196
NCI-H2085	0.907

Cell Line	relative viability
A-427	0.202
NCI-H727	0.602
NCI-H838	0.274
NCI-H1793	0.398
201T	0.877
LOU-NH91	0.64
NCI-H1666	0.641
NCI-H650	0.673
NCI-H1993	0.6
NCI-H647	0.262
NCI-H2126	0.856
NCI-H1755	0.584
PC-3 [JPC-3]	0.88
NCI-H2087	0.294
NCI-H441	0.768
HOP-62	0.33
NCI-H2170	0.729

Same assay, conditions: first compound 8 µM

Cell Line	relative viability
NCI-H1395	0.565
NCI-H358	0.0806
HCC-78	0.38
EKVX	0.36
EPLC-272H	0.272
LK-2	0.174
PC-14	0.486
LXF-289	0.182
LC-2-ad	0.382
NCI-H1651	0.645
HCC-827	0.415
LCLC-103H	0.433
RERF-LC-KJ	0.388
NCI-H3122	0.382
BEN	0.445
LCLC-97TM1	0.209
NCI-H2085	0.751
A-427	0.185
NCI-H727	0.625
NCI-H838	0.267
NCI-H1793	0.3
201T	0.943
LOU-NH91	0.587
NCI-H1666	0.628
NCI-H650	0.672
NCI-H1993	0.567
NCI-H647	0.267
NCI-H2126	0.754
NCI-H1755	0.524
PC-3 [JPC-3]	0.908
